This is an account of results in PMC9561113, “[2]-Ladderanes as isosteres for meta-substituted aromatic rings and rigidified cyclohexanes” (Nature Communications, 2022).

Values after ≈ are worked out from the molar mass of the structure shown.

Series [1] can be described thus: Microsomal clearance (rat liver microsomal intrinsic clearance). Type of series: in vitro ADME. Particulars: rat liver microsomes, 37 °C, NADPH, 0-30 minutes. From the text: The metabolic and physicochemical properties of the [2]-ladderanes compared to aryl/cyclohexyl matched pairs were also studied (compare 35 with 36/37 and 38 with 39/40) (Fig. 5). These structures were chosen because they bear functional groups that are common in drug discovery, yet unlikely to pose any inherent risks. In addition, solubility, permeability, rat liver microsomal intrinsic clearance, and LogP were selected to be evaluated as these are common parameters modulated in drug discovery programs to improve the pharmacokinetic/pharmacodynamic and safety profiles of potential drug candidates.
The following procedure was adapted from the literature. 14 The experiment was performed in 96-well plate format with shaking incubation at 37 °C and 750 rpm. The compounds in 10 mM DMSO were diluted 1:1000 in 100 mM potassium phosphate (Kpi) buffer to 10 µM. 30 µL of the compound solution was added to 120 µL of pretreated microsomal protein for 150 µL enzyme-substrate mixture. Reactions were initiated by addition of 150 µL of cofactor solution (2 mM NADPH, 4 mM MgCl2 in 100 mM KPi). At specific reaction time points (0, 5, 15 and 30 minutes), reaction aliquots (25 µL) were removed and terminated by addition to acetonitrile (150 µL) containing mass spectrometry internal standard (0.4 µM glyburide). The samples were then centrifuged at 500g, and the supernatants analyzed by LC-MS/MS for quantitation of remaining target compound. The percentage of target compound remaining, relative to 0 minutes, was used to estimate in vitro elimination-rate constant (kmic). […]
In general terms: Microsomes from liver hold many membrane-bound enzymes, among them those of drug oxidation.

Series [2] is described as follows: High throughput equilibrium solubility (miniaturized shake flask). Type of series: physicochemical. Particulars: phosphate buffer, aqueous buffer, thermodynamic from solid; pH 6.8 phosphate media, shaken 16 hours. Here is the method:
High Throughput Equilibriu m Solubility:
The following procedure was adapted from the literature.15 Equilibrium solubility was determined using a miniaturized shake flask approach as described in Zhou et al. Aliquots of 10 mM DMSO compound solution were dispensed in triplicate (2.5 µL/sample) in 96-well polypropylene plates using a Labcyte Echo 525 acoustic dispenser. The DMSO was removed using a GeneVac HT4X evaporator for 15 minutes, 35 °C and full vacuum. Media (pH 6.8 Di-Sodium Hydrogen Phosphate/Potassium Hydrogen Phosphate) was added to each well to achieve a target concentration of 1 mM. The plate was sealed and shaken for 16 hours, then centrifuged at 1000g for phase separation. An aliquot of supernatant was transferred to a new plate, centrifuged a second time at 100g, and then the final supernatant was further diluted for subsequent analysis. Quantification of solubility was performed using a Sound Analytics LS1 and Sciex 6500+ MS/MS and an 8-point calibration curve. […]

The nature of series [3]: Permeability (MDCK), apparent permeability apical-to-basolateral. It is filed as in vitro ADME. Particulars: dog, with bafilomycin 100 nM in both compartments, MDCK-KO cells, pH 7.4, 2 h, read-out: Papp A-Bx10^-6. Here is the method:
The following procedure was adapted from the literature.16 To determine the apparent permeability (Papp), MDCK knockout (MDCK-KO) cells were seeded on Transwell 96 -well plate inserts (Corning, Tewksbury, MA,) at a density of 1.5 × 10^5 cells/cm2 in high glucose DMEM with GlutaMAX containing 10% […]
v/v heat deactivated FBS and 1% v/v penicillin-streptomycin (all from Gibco) and grown for 4 days at 37 °C in an atmosphere of 5% CO 2 and 95% relative humidity. Stock solutions of the compounds were prepared in dimethyl sulfoxide (DMSO) (10 mM), and each compound was dosed in triplicate at a final concentration of 10 μM in Hanks’ balanced salt solution (HBSS) at pH 7.4 containing 10 mM 4-(2-hydroxyethyl)-1-piperazineethanesulfonic acid (HEPES) and 0.02% w/v bovine serum albumin (BSA). A solution without the compounds and containing 5% BSA was added to the acceptor. Bafilomycin (100 nM) was added to both compartments. Cells were incubated with the compounds for 2 h at 37 °C, and flux was measured in the apical-to-basolateral direction. Aliquots from the apical, basal and compound dilution plate were sampled and diluted in 90% Methanol 10% Water with 0.1% Formic acid and 0.4 μ M glyburide as an analytical standard to precipitate the protein. The solutions as well as the calibration solutions were centrifuged for 30 min at 3000 rpm for protein precipitation. Drug concentrations in the donor and acceptor compartments were measured by liquid chromatography–mass spectrometry (LC-MS/MS). […]

A short description of series [4]: Log P (Pion SiriusT3 instrument). It is filed as physicochemical. How it is done: v/v heat deactivated FBS and 1% v/v penicillin-streptomycin (all from Gibco) and grown for 4 days at 37 °C in an atmosphere of 5% CO 2 and 95% relative humidity. Stock solutions of the compounds were prepared in dimethyl sulfoxide (DMSO) (10 mM), and each compound was dosed in triplicate at a final concentration of 10 μM in Hanks’ balanced salt solution (HBSS) at pH 7.4 containing 10 mM 4-(2-hydroxyethyl)-1-piperazineethanesulfonic acid (HEPES) and 0.02% w/v bovine serum albumin (BSA). A solution without the compounds and containing 5% BSA was added to the acceptor. Bafilomycin (100 nM) was added to both compartments. Cells were incubated with the compounds for 2 h at 37 °C, and flux was measured in the apical-to-basolateral direction. Aliquots from the apical, basal and compound dilution plate were sampled and diluted in 90% Methanol 10% Water with 0.1% Formic acid and 0.4 μ M glyburide as an analytical standard to precipitate the protein. The solutions as well as the calibration solutions were centrifuged for 30 min at 3000 rpm for protein precipitation. Drug concentrations in the donor and acceptor compartments were measured by liquid chromatography–mass spectrometry (LC-MS/MS).
The Log P was measured using a Pion SiriusT3 instrument.
To determine the stability of the bicyclo[2.2.0] system, the following experiments were performed:
Aqueous stability at two different pH:
SI-48 was first saponified to avoid the possibility of acid- or base-mediated hydrolysis:
Two solutions of pH = 2 and pH = 10 were prepared with 1M solutions of HCl and NaOH. Then, SI-49 was stirred in two separate solutions (1 mL of each of the aqueous solution and 0.80 mL of MeCN for each).
LC/MS for both durations. […]

`O=C(C1CC2CC(CO)C21)N1CCCCC1` (stereo not drawn) [compound 35]: in series [1], the “Rat Clint” value is 15 mL/min. The molecule further gave a solubility at 16 h in series [2] of more than 200 µM. The Papp at 2 h, 10 μM in series [3] stood at 29 ×10⁻⁶ cm/s. The same molecule showed a logP in series [4] of 0.74.
Consider `O=C(c1cccc(CO)c1)N1CCCCC1` [compound 36], for which the “Rat Clint” value in series [1] was less than 10 mL/min. The same molecule had a solubility at 16 h in series [2] of more than 200 µM. In addition, the apparent permeability (Papp) at 2 h, 10 μM in series [3] was determined as 32 ×10⁻⁶ cm/s. Besides, the log partition coefficient (logP) in series [4] was found to be 0.41.
Take `O=C(C1CCCC(CO)C1)N1CCCCC1` (stereo not drawn) [compound 37]: the “Rat Clint” value in series [1] is 21 mL/min. In series [2], this molecule gave a solubility at 16 h of more than 200 µM. For the same molecule, the apparent permeability coefficient (Papp) at 2 h, 10 μM in series [3] amounted to 28 ×10⁻⁶ cm/s. This molecule also showed a logP in series [4] of 1.45.
For `O=C(O)[C@@H]1C[C@H]2C[C@H](C(=O)N3CCCCC3)[C@H]21` [compound 38], in that order: less than 10 mL/min, 180 µM (≈ 42.7 µg/mL), 5 ×10⁻⁶ cm/s and 0.98.
In the case of `O=C(O)c1cccc(C(=O)N2CCCCC2)c1` [compound 39], the “Rat Clint” value in series [1] is less than 10 mL/min. Moreover, in series [2], the solubility at 16 h is more than 200 µM. In addition, the Papp at 2 h, 10 μM in series [3] was 4 ×10⁻⁶ cm/s. The molecule also had a logP in series [4] of 1.15.
In the same order, the values of `O=C(O)C1CCCC(C(=O)N2CCCCC2)C1` (stereo not drawn) [compound 40] are less than 10 mL/min, 200 µM (≈ 47.9 µg/mL), 4 ×10⁻⁶ cm/s and 0.95.

By solubility is commonly meant the dissolved amount per volume that the medium holds. A higher solubility goes with a readily soluble substance. By Papp is commonly meant a coefficient for how fast a substance crosses the barrier. By logP is commonly meant the decadic logarithm of the partition coefficient of the neutral form, usually between octanol and water. Low values mean lower lipophilicity, high ones higher lipophilicity.
